Source: PMC11562385 (RSC Chemical Biology, 2024)
Where two headings read alike, the source gives them in different places. Peptide text beside a SMILES is read from it.

Key:
[1] = target: T1, PD1:PDL1 interaction (Homo sapiens, UniProt Q15116); experiment: PD1/PDL1 immunoblocking ELISA (BPS Bioscience kit cat # 72005); format: binding; details: for LE (ligand efficiency): LE = -RTln(EC50)/HA, HA = non-hydrogen atoms omitting the strap (RWV•••VWE)
T1 construct: purchased BPS Bioscience 72005

[2] = Variable-temperature CD melting curves (CD-melts at 228±2 nm and 202±2 nm), individual and global two-state fits; format: physicochemical; details: for ΔGF0: CD-melt at 228±2 nm, individual two-state Gibbs-Helmholtz fit (Origin 9.0), phosphate buffer 15 mM pH 6.5 ± MeOH; for ΔGF0 / DHm (fitted value, results from OriginPro) / Tm (fitted value, results from OriginPro): 0-95 °C; for Tm / Hairpin %-fold 291K / Hairpin %-fold 310K: Table S5, individual fit; for Tm: 228±2 nm; for -TΔSF0 / ΔCpF0 / ΔHF0 / ΔHm: as E16; for VT-CD %-fold: folded fraction (χF) at 25 °C from CD-melts, (R) regular / (B) bulged fold; for VT-CD %-fold / VT-CD Tm (°C): phosphate buffer 15 mM pH 6.5, up to 20% MeOH; for VT-CD Tm (°C): melting temperature from CD-melts; for DHm (fitted value, results from OriginPro) / Tm (fitted value, results from OriginPro): two-state fit of the CD melt θ - θcoil(95) vs T, l 0.1 cm, peptide c 3.2e-5 to 5e-5 M; for DHm, fitted value from OriginPro / Tm, fitted value from OriginPro: xlsx sheet of the peptide, individual fit of CD-melt
Description: Recently, our laboratory brought forward a novel synthetic technology for the synthesis of acyclic β-hairpins with long loops. […] To compare hairpins’ stability, both regular (R) and bulged (B) scaffolds were crafted around a flexible 10-residue model loop (G4K2G4) and analyzed by CD (circular dichroism) spectroscopy (Fig. 2(A), see ESI, ^† Table S5). The […] structure of these model scaffolds 1avs.2a in solution were recorded in the far-UV CD spectra. […] The CD-exciton intensity was therefore used as a global probe to determine the %-folding of ADAPTins and to obtain melting curves corresponding to the hairpin fraying mechanism upon a gradual increase of temperature (0 to 95 °C).[68] […] In addition, NMR (nuclear magnetic resonance) chemical shifts were measured to determine variations in backbone […] structures (Fig. 2(B)). Secondary chemical shift deviations (CSDs) were calculated against random coil values[69] for both ADAPTin scaffolds 1vs.2 to verify that the hairpins were folded and if any variation of conformational rigidity exist within the loops. […]
Mass Spectrometer coupled to a Vanquish™ Neo UHPLC System (Thermo Scientific™). Peptide solutions for circular dichroism (CD) were prepared within a concentration range of 15-120 µM in a phosphate buffer (15 mM, […]
measured accurately using a JASCO V-670 spectrophotometer relied on the combined molar absorptivity of Trp (ε280 = 5580 M-1 .cm-1 per Trp) and Tyr (ε280 = 1280 M-1 .cm-1 per Tyr) to determine each sample's concentration.
CD spectra were recorded using a JASCO J-810 Spectropolarimeter equipped with a temperature controller module JASCO PFD-425S. Raw CD melting curves were processed in SpectraGryph, and fitting was performed in OriginPro 9.0 (Originlab Corporation, U.S.A.). NMR samples were prepared by reconstituting freeze -dried peptides (~ 1-5 mg) in mixture of water and DMSO -d6 (90:10 v/v) using 2,2-dimethyl-2-silapentane-5-sulfonate (DSS) as internal standard for chemical shifts (0 ppm), and spectra were recorded at 291 K (18 °C) unless otherwise stated. Chemical shifts ( δ) are reported in ppm. Samples for NMR experiments were prepared in a range of 3-10 mM of peptide in solution unless otherwise noted.

[3] = ELISA, mean of three independent experiments, read-out: EC50 Value
[4] = PD1:PDL1 inhibition EC50, ELISA, PDL1-coated plate, biotin-labeled human PD-1, 2 h rt, chemiluminescence, Hill fit, mean ± SD, n = 3, SD
[5] = [PD1•PDL1] blocking EC50, Fig. 3B, cut-off bars of congeneric pairs (Phe/Trp vs Gly), n = 3

T1 sequence (Q15116 25-167 limits assumed): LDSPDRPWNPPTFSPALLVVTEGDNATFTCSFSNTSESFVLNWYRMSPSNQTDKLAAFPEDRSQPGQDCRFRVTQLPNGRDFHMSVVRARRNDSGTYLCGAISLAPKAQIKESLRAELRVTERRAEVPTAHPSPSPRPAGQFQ

SMILES	EC50 [1, 3]	LE (ligand efficiency) [1]	ΔGF0 [2]	Tm [2]	Hairpin %-fold 291K [2]	Hairpin %-fold 310K [2]	-TΔSF0 [2]	ΔCpF0 [2]	ΔHF0 [2]	ΔHm [2]	VT-CD %-fold [2]	VT-CD Tm (°C) [2]	DHm (fitted value, results from OriginPro) [2]	Tm (fitted value, results from OriginPro) [2]	DHm, fitted value from OriginPro [2]	Tm, fitted value from OriginPro [2]	EC50 [1, 4]	EC50 [1, 5]	TM (°C) ([2]; Fig. 2, CD-melts of regular vs bulged scaffolds)
CC[C@H](C)[C@H](NC(=O)[C@H](CC(=O)O)NC(=O)[C@H](CC(C)C)NC(=O)[C@H](CC(=O)O)NC(=O)[C@H](CCCNC(=N)N)NC(=O)[C@H](Cc1c[nH]c2ccccc12)NC(=O)[C@@H](NC(=O)[C@H](Cc1c[nH]c2ccccc12)NC(=O)[C@@H](N)CCCNC(=N)N)C(C)C)C(=O)N[C@@H](C)C(=O)N[C@H](C(=O)N[C@H](C(=O)N[C@@H](CCCNC(=N)N)C(=O)N[C@@H](CC(=O)O)C(=O)N[C@@H](Cc1ccc(O)cc1)C(=O)N[C@@H](Cc1c[nH]c2ccccc12)C(=O)N[C@H](C(=O)N[C@@H](Cc1c[nH]c2ccccc12)C(=O)N[C@@H](CCC(=O)O)C(=O)O)C(C)C)[C@@H](C)O)[C@@H](C)O [1f] (H-RWVWRDLDIATTRDYWVWE-OH)	3.36 µM	0.06	-0.49 ± 0.01 kcal/mol	39.4 oC	78 ± 1%	53 ± 1%	9.96 ± 0.06 kcal/mol	-15 ± 3 cal.deg-1.mol-1	-10.5 ± 0.06 kcal/mol	-10.7 ± 0.04 kcal/mol	78% (R)	39 °C	-10.6792 kcal/mol	312.539 K					
CSCC[C@H](NC(=O)[C@H](CC(=O)O)NC(=O)[C@H](Cc1ccccc1)NC(=O)[C@H](CCCNC(=N)N)NC(=O)[C@H](Cc1ccc(O)cc1)NC(=O)[C@H](CC(=O)O)NC(=O)[C@H](CCCNC(=N)N)NC(=O)[C@H](CCCNC(=N)N)NC(=O)[C@H](Cc1c[nH]c2ccccc12)NC(=O)[C@@H](NC(=O)[C@H](Cc1c[nH]c2ccccc12)NC(=O)[C@@H](N)CCCNC(=N)N)C(C)C)C(=O)NCC(=O)N[C@@H](Cc1ccccc1)C(=O)N[C@@H](CC(=O)O)C(=O)N[C@@H](Cc1ccc(O)cc1)C(=O)N[C@@H](Cc1c[nH]c2ccccc12)C(=O)N[C@H](C(=O)N[C@@H](Cc1c[nH]c2ccccc12)C(=O)N[C@@H](CCC(=O)O)C(=O)O)C(C)C [1d] (H-RWVWRRDYRFDMGFDYWVWE-OH)	6.8 µM	0.05	0.010 ± 0.001 kcal/mol	34.9 oC	48 ± 1%	49 ± 1%	-1.08 ± 0.04 kcal/mol	-189 ± 2 cal.deg-1.mol-1	1.09 ± 0.04 kcal/mol	-0.037 ± 0.07 kcal/mol	49% (R)				-0.0374427 kcal/mol	303.944 K			
CSCC[C@H](NC(=O)[C@H](CC(=O)O)NC(=O)CNC(=O)[C@H](CCCNC(=N)N)NC(=O)[C@H](Cc1ccc(O)cc1)NC(=O)[C@H](CC(=O)O)NC(=O)[C@H](CCCNC(=N)N)NC(=O)[C@H](CCCNC(=N)N)NC(=O)[C@H](C)NC(=O)[C@@H](NC(=O)[C@H](Cc1c[nH]c2ccccc12)NC(=O)[C@@H](N)CCCNC(=N)N)C(C)C)C(=O)NCC(=O)N[C@@H](Cc1ccccc1)C(=O)N[C@@H](CC(N)=O)C(=O)N[C@@H](Cc1ccc(O)cc1)C(=O)N[C@@H](Cc1c[nH]c2ccccc12)C(=O)N[C@H](C(=O)N[C@@H](Cc1c[nH]c2ccccc12)C(=O)N[C@@H](CCC(=O)O)C(=O)O)C(C)C [2j] (H-RWVARRDYRGDMGFNYWVWE-OH)		0.07	-1.63 ± 0.01 kcal/mol	57.8 oC	97 ± 1%	84 ± 1%	14.3 ± 0.09 kcal/mol	-29 ± 3 cal.deg-1.mol-1	-15.9 ± 0.02 kcal/mol	-16.8 ± 0.03 kcal/mol	97% (B)	58 °C	-16.8394 kcal/mol	330.952 K			0.1 ± 0.01 µM		
CSCC[C@H](NC(=O)[C@H](CC(=O)O)NC(=O)CNC(=O)[C@H](CCCNC(=N)N)NC(=O)[C@H](Cc1ccc(O)cc1)NC(=O)[C@H](CC(=O)O)NC(=O)[C@H](CCCNC(=N)N)NC(=O)[C@H](CCCNC(=N)N)NC(=O)[C@H](C)NC(=O)[C@@H](NC(=O)[C@H](Cc1c[nH]c2ccccc12)NC(=O)[C@@H](N)CCCNC(=N)N)C(C)C)C(=O)NCC(=O)N[C@@H](Cc1ccccc1)C(=O)N[C@@H](CC(=O)O)C(=O)N[C@@H](Cc1ccc(O)cc1)C(=O)N[C@@H](Cc1c[nH]c2ccccc12)C(=O)N[C@H](C(=O)N[C@@H](Cc1c[nH]c2ccccc12)C(=O)N[C@@H](CCC(=O)O)C(=O)O)C(C)C [2b] (H-RWVARRDYRGDMGFDYWVWE-OH)	7.05 µM	0.06	-1.24 ± 0.01 kcal/mol	59.1 oC	92 ± 1%	81 ± 1%	7.65 ± 0.03 kcal/mol	-193 ±1 cal.deg-1.mol-1	-8.89 ± 0.03 kcal/mol		92% (B)	59 °C			-15.492 kcal/mol	332.248 K		> 5 µM	59 °C
CSCC[C@H](NC(=O)[C@H](CC(=O)O)NC(=O)[C@H](Cc1ccccc1)NC(=O)[C@H](CCCNC(=N)N)NC(=O)[C@H](Cc1ccc(O)cc1)NC(=O)[C@H](CC(=O)O)NC(=O)[C@H](CCCNC(=N)N)NC(=O)[C@H](Cc1c[nH]c2ccccc12)NC(=O)[C@@H](NC(=O)[C@H](Cc1c[nH]c2ccccc12)NC(=O)[C@@H](N)CCCNC(=N)N)C(C)C)C(=O)NCC(=O)N[C@@H](Cc1ccccc1)C(=O)N[C@@H](CC(=O)O)C(=O)N[C@@H](Cc1c[nH]c2ccccc12)C(=O)N[C@H](C(=O)N[C@@H](Cc1c[nH]c2ccccc12)C(=O)N[C@@H](CCC(=O)O)C(=O)O)C(C)C [1c] (H-RWVWRDYRFDMGFDWVWE-OH)		0.06	0.31 ± 0.01 kcal/mol	-2.99 oC	40 ± 1%	32 ± 1%	3.66 ± 0.01 kcal/mol	-23 ± 0.4 cal.deg-1.mol-1	-3.35 ± 0.01 kcal/mol		40% (R)	<0 °C			-2.72263 kcal/mol	270.158 K	12.3 ± 1.5 µM	> 5 µM	
